Data published in patent US12419308B2, “Phenylpyrazole insecticide compounds and compositions” (priority 2023, dated 2025).

Assays:
[1] = test system: adult worker honeybees, Apis mellifera L; test: Acute oral toxicity test in honeybees (OECD 213); assay type: in vivo
Protocol: Untreated 50% w/v sucrose solution with 0.2% of propanol-water solution (ratio 80%-20%) is used as a negative control.
The test item is diluted with aqueous sucrose solution 50% (w/v) to prepare the oral solutions. The bees used for the oral test are anesthetized with carbon dioxide for the time necessary to immobilize them and placed inside the test cages; 2 hours before the treatment they are starved. A volume of 200 μL (20 μL/bee) of treated diet is administered to each cage with a dispenser (e.g., a syringe without tip), weighed before and after filling.
The overall exposure period is 6 hours, during which consumption is monitored: the feeder is changed at the end of the six hours or once the treated diet has been consumed (usually within 3-4 hours). In both cases, the feeder is weighed and a new feeder with untreated 50% (w/v) sucrose solution is provided ad libitum, and the mean effective dose is calculated based on the actual consumption.

[2] = test system: Dermanyssus gallinae; test: Antiparasitic efficacy on live chickens with natural mite infestation; assay type: in vivo; details: by day 5 of treatment; 0.25% (w/v) spray, 7.5 mg/kg once daily for 5 days
Protocol: Two animals are treated with the compound of Example 1, and two animals are treated with Fipronil, while one animal is left untreated as a negative control. The infestation by D. gallinae is monitored by checking the density of mites in particular areas of the animal's bodies (feet, legs, and wings), comparing pre-treatment levels of infestation to post-treatment levels.
When all pests have been eliminated, a 100% pest control capability was achieved. In the case of some chemical products, when the pest was not fully eliminated, the disinfestation capacity was measured by averaging the number of infesting organisms located in three distinct areas of the treated animals, at the beginning of the treatment, and at the end of the treatment.

[3] = Egg concentration analysis from topically treated chickens; assay type: in vivo; details: eggs from Day 5
Protocol: One animal is left untreated as a negative control.
A modified and optimized QuEChERS protocol was employed to extract the compounds from eggs. The shell is manually removed, and then each egg is transferred to a clean beaker and homogenized with an electric mixer for small volumes. 5 grams of homogenized egg is put into a 50 mL Falcon tube, and 5 mL of water is added and the samples are shaken for 10 minutes. Next, 10 mL of acetonitrile is added and the samples are shaken again for 10 minutes. Then the roQ salts (4.0 g MgSO4, 1.0 g NaCl, 1.0 SCTD and 0.5 g SCDS, Phenomenex P/N KS08909) are added to each sample, and the mixture is well shaken for 10 minutes. Samples are then centrifuged at 2500 g for 5 minutes at room temperature, and the supernatant is transferred to an HPLC vial for analysis. The same HPLC-MS method is used as described above.
One egg from two chickens is analyzed: one chicken treated with Fipronil and one chicken treated with the Compound of Example 1. The eggs are both from Day 5. The results are shown in the following tables expressed as relative LC-MS peak area: […]

[4] = test system: Human Cryopreserved Hepatocytes; test: Metabolic stability in human cryopreserved hepatocytes; assay type: in vitro ADME
Protocol: The metabolic stability of the Compounds of Examples 1 and 4 is therefore evaluated to determine whether metabolic degradation results in metabolites of concern.
Briefly, Human Cryopreserved Hepatocytes (Gibco, lot. HUE125) are added to incubation wells in a 96-well assay plate at a density of 500,000 cells/mL in William's E Medium. […] The wells are incubated at 37° C. and stop solution is added to wells at time points: 0, 30, 60, 120, 240 min. The stop solution is ice-cold solution containing 0.5 μM labetalol in acetonitrile (100 μL/well) (2:1, vol/vol). Each time point is tested in triplicate. Analysis is carried out by LC-MS.
• Instrument: QExactive • Column: Luna Omega 1.6 μm polar C18 100 Å (150×2.1 mm) • Column temperature: 40° C. • Column No: 102+pre-column installed • Injection volume: 2 μl • Flux: 0.40 mL/min • Polarity: Negative • Fluent A: water Milli Q+0.1% FA • Fluent B: ACN+0.1% FA • Acquisition method: Full MS+DDS on the IL obtained with MassMetaSite (peak others ON).

[5] = human hepatocytes, up to 240 min, 1 μM

N#Cc1nn(-c2c(Cl)cc(C(F)(F)F)cc2Cl)c2nc(O)cc(C(F)(F)F)c12 [Example 1, 1-(2,6-dichloro-4-(trifluoromethyl)phenyl)-6-hydroxy-4-(trifluoromethyl)-1H-pyrazolo[3,4-b]pyridine-3-carbonitrile]
% CM (4 hours) ([1]; group T1, dose 0.002 μg/bee): 0.0%
% CM (24 hours) ([1]; group T1, dose 0.002 μg/bee): 0.0%
% CM (48 hours) ([1]; group T1, dose 0.002 μg/bee): 0.0%
% CM (4 hours) ([1]; group T2, dose 0.004 μg/bee): 0.0%
% CM (24 hours) ([1]; group T2, dose 0.004 μg/bee): 19.2%
% CM (48 hours) ([1]; group T2, dose 0.004 μg/bee): 17.4%
% CM (4 hours) ([1]; group T3, dose 0.006 μg/bee): 0.0%
% CM (24 hours) ([1]; group T3, dose 0.006 μg/bee): 15.4%
% CM (48 hours) ([1]; group T3, dose 0.006 μg/bee): 13.0%
Chickens free of mites [2]: 100%
Accumulation in eggs of treated chickens compared to Fipronil [3]: substantially less accumulation in the eggs
Original compound still present ([4]; after 240 minutes, 1 μM, 500,000 cells/mL, 37° C.): approximately 95.5%
Metabolic stability (in words) [4, 5]: metabolically stable
Metabolite peaks observed [4, 5]: no particular peaks indicative of metabolites
